The structures appear in SMILES notation. Bounds are passed on as bounds.

These results are taken from patent US20250163067A1, “NUCLEOBASE-SUBSTITUTED PIPERIDINYL-PYRIDINES AND RELATED COMPOUNDS AND THEIR USE IN TREATING DISEASES AND CONDITIONS” (K36 Therapeutics, Inc., priority 2023, published 2025).

The target of the assay is recombinant human NSD2 (Homo sapiens (Human), UniProt O96028). Put plainly: NSD2 inhibitory activity, modified RBC HotSpot HMT Assay. To be noted: recombinant human NSD2 (amino acids 2-end) 2 nM, chicken oligonucleosomes 0.05 mg/ml, 3H-SAM 1 μM, 1 hour at 30° C. The class given is biochemical. Here is the method: Exemplary compounds were tested for NSD2 inhibitory activity using a modified RBC HotSpot HMT Assay.
Chain of recombinant human NSD2 (O96028 2-1365 limits assumed): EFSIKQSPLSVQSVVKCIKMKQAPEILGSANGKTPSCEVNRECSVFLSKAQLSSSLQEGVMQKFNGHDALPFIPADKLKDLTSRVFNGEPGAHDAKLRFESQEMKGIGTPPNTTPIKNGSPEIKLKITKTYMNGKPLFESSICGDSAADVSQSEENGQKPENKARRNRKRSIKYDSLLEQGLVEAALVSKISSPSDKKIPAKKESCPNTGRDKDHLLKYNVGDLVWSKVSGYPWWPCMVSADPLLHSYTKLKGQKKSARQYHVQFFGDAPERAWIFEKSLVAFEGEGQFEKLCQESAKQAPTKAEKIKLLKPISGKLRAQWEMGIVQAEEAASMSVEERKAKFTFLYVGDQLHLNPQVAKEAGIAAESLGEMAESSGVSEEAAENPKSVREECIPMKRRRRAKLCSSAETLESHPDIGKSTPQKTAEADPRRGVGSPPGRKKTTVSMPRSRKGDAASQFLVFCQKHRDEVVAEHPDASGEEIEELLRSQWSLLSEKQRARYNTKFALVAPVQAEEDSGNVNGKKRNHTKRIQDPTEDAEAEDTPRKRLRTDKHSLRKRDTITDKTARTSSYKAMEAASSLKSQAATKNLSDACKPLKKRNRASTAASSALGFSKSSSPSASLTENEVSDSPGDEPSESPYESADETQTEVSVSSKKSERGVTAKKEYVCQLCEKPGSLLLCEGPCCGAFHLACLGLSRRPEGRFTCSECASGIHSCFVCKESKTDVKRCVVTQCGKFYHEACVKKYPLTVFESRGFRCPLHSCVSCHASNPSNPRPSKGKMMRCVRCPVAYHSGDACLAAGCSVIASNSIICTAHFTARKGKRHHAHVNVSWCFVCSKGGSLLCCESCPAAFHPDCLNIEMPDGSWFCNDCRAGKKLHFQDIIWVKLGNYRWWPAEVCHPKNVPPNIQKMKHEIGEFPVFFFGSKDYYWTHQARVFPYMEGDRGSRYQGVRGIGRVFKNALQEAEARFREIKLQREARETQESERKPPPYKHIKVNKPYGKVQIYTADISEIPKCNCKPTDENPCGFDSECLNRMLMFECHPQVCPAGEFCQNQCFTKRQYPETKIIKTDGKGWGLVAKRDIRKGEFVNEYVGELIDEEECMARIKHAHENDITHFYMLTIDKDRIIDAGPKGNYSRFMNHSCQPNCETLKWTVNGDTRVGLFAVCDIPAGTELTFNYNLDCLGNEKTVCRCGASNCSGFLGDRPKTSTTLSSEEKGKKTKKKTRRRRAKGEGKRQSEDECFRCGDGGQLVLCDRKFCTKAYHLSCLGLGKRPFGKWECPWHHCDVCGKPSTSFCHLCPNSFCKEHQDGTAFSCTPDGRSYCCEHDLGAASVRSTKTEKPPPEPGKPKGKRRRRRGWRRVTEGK
A reaction mixture was prepared by adding oligonucleosomes from Chicken (0.05 mg/ml) to freshly prepared reaction buffer containing 50 mM Tris-HCl (pH 8.5), 50 mM NaCl, 5 mM MgCl2, 0.01% Brij35, 1 mM DTT, and 1% DMSO followed by the addition of recombinant human NSD2, (amino acids 2-end) with N-terminal His tag (2 nM; GenBank Accession No. NM 001042424; MW=155.5 kDa; expressed in Sf9 insect cells) and gentle mixing. The test compounds were diluted in DMSO, added to the reaction mixture in nanoliter amounts by using Acoustic Technology (Echo 550, LabCyte Inc. Sunnyvale, CA) and incubated for 20 minutes at room temperature. The reaction was initiated by the addition of S-Adenosyl-L-[methyl-^3H] methionine (^3H-SAM; 1 μM), and the mixture was incubated for 1 hour at 30° C. The reaction mixture was delivered to filter paper and the methylated substrate was quantified by scintillation counting. Data analysis was performed using Excel and GraphPad Prism software for IC50 curve fits. For additional information on the histone methyltransferase assay, see, for example, Horiuchi K Y, et al., “Assay Development for Histone Methyltransferases,” Assay Drug Dev Technol. 2013 May; 11 (4): 227-36.
One may read the IC50 as the midpoint of a concentration-inhibition curve. For the compound `COc1cc(F)c(-c2cc(Cc3cnc4c(N)nccn34)c(N3CCC[C@](N)([C@H](O)C(F)F)C3)cn2)cc1F` [Compound I-4, (S)-1-((R)-3-AMINO-1-(4-((8-AMINOIMIDAZO [1,2-A]PYRAZIN-3-YL)METHYL)-6-(2,5-DIFLUORO-4-METHOXYPHENYL)PYRIDIN-3-YL)PIPERIDIN-3-YL)-2,2-DIFLUOROETHAN-1-OL], the IC50 was at most 1000 nM.

On to `COc1cc(F)c(-c2cc(Cn3cnc4cncnc43)c(N3CCC[C@](N)([C@H](O)C(F)F)C3)cn2)cc1F` [IV-1], for which the IC50 was at most 1000 nM.

Turning to `COc1cc(F)c(-c2cc(Cn3cnc4ncncc43)c(N3CCC[C@](N)([C@H](O)C(F)F)C3)cn2)cc1F` [IV-2], the IC50 is over 1000 nM. For the compound `COc1cc(F)c(-c2cc(CN3CCc4cncnc43)c(N3CCC[C@](N)([C@H](O)C(F)F)C3)cn2)cc1F` [IV-3], the IC50 was over 1000 nM. For `COc1cc(F)c(-c2cc(Cn3ccc4cncnc43)c(N3CCC[C@](N)([C@H](O)C(F)F)C3)cn2)cc1F` [IV-4], the IC50 is over 1000 nM.

As for `COc1cc(F)c(-c2cc(Cn3ccc4ncncc43)c(N3CCC[C@](N)([C@H](O)C(F)F)C3)cn2)cc1F` [IV-5], the IC50 was at most 1000 nM. The same measure for `COc1cc(F)c(-c2cc(Cn3cnc4ccccc43)c(N3CCC[C@](N)([C@H](O)C(F)F)C3)cn2)cc1F` [IV-6]: over 1000 nM.

As for `COc1cc(F)c(-c2cc(Cn3cnc4nccnc43)c(N3CCC[C@](N)([C@H](O)C(F)F)C3)cn2)cc1F` [IV-7], the IC50 is over 1000 nM. Take `COc1cc(F)c(-c2cc(Cn3cnc4cnncc43)c(N3CCC[C@](N)([C@H](O)C(F)F)C3)cn2)cc1F` [IV-8]: the IC50 was over 1000 nM. As for `COc1cc(F)c(-c2cc(Cn3ncc4ncncc43)c(N3CCC[C@](N)([C@H](O)C(F)F)C3)cn2)cc1F` [IV-9], the IC50 is over 1000 nM. In the case of `COc1cc(F)c(-c2cc(Cn3ncc4cncnc43)c(N3CCC[C@](N)([C@H](O)C(F)F)C3)cn2)cc1F` [IV-10] it was over 1000 nM; in that of `COc1cc(F)c(-c2cc(CN3Cc4nccnc4C3)c(N3CCC[C@](N)([C@H](O)C(F)F)C3)cn2)cc1F` [IV-11], over 1000 nM.

On to `COc1cc(F)c(-c2cc(Cn3ncc4nccnc43)c(N3CCC[C@](N)([C@H](O)C(F)F)C3)cn2)cc1F` [IV-12], for which the IC50 is over 1000 nM. Regarding `COc1cc(F)c(-c2cc(Cn3ccc4nccnc43)c(N3CCC[C@](N)([C@H](O)C(F)F)C3)cn2)cc1F` [IV-13], the half-maximal inhibitory concentration (IC50) is over 1000 nM.

Consider `COc1cc(F)c(-c2cc(Cn3ccc4ncccc43)c(N3CCC[C@](N)([C@H](O)C(F)F)C3)cn2)cc1F` [IV-14], for which the half-maximal inhibitory concentration (IC50) is over 1000 nM. In the case of `COc1cc(F)c(-c2cc(Cn3ncc4cnccc43)c(N3CCC[C@](N)([C@H](O)C(F)F)C3)cn2)cc1F` [IV-15] it was over 1000 nM; in that of `COc1cc(F)c(-c2cc(Cn3cnc4c(O)nc(N)nc43)c(N3CCC[C@](N)([C@H](O)C(F)F)C3)cn2)cc1F` [IV-17], over 1000 nM; in that of `COc1cc(F)c(-c2cc(Cn3ccc(N)nc3=O)c(N3CCC[C@](N)([C@H](O)C(F)F)C3)cn2)cc1F` [IV-18], over 1000 nM. The same measure for `COc1cc(F)c(-c2cc(CN3CCC(=O)NC3=O)c(N3CCC[C@](N)([C@H](O)C(F)F)C3)cn2)cc1F` [IV-19]: over 1000 nM; for `COc1cc(F)c(-c2cc(Cn3ccnc3)c(N3CCC[C@](N)([C@H](O)C(F)F)C3)cn2)cc1F` [IV-20]: over 1000 nM; for `COc1cc(F)c(-c2cc(Cn3ccnn3)c(N3CCC[C@](N)([C@H](O)C(F)F)C3)cn2)cc1F` [IV-21]: over 1000 nM.

Regarding `COc1cc(F)c(-c2cc(CN3CCNC3=O)c(N3CCC[C@](N)([C@H](O)C(F)F)C3)cn2)cc1F` [IV-22], the IC50 is over 1000 nM.

As to `COc1cc(F)c(-c2cc(Cn3ccc4cnccc43)c(N3CCC[C@](N)([C@H](O)C(F)F)C3)cn2)cc1F` [IV-23], the IC50 was over 1000 nM. In the case of `COc1cc(F)c(-c2cc(CN3NCc4cnc(N)nc43)c(N3CCC[C@](N)([C@H](O)C(F)F)C3)cn2)cc1F` [IV-24] it was over 1000 nM; in that of `COc1cc(F)c(-c2cc(CNc3cc4[nH]ccc4cn3)c(N3CCC[C@](N)([C@H](O)C(F)F)C3)cn2)cc1F` [IV-28], over 1000 nM; in that of `COc1cc(F)c(-c2cc(Cn3cnnn3)c(N3CCC[C@](N)([C@H](O)C(F)F)C3)cn2)cc1F` [IV-29], over 1000 nM. Turning to `COc1cc(F)c(-c2cc(Cn3cnnc3)c(N3CCC[C@](N)([C@H](O)C(F)F)C3)cn2)cc1F` [IV-30], the IC50 is over 1000 nM.
